# Reference: patent EP1143981B1, “USE OF N-GLYCOLNEURAMINIC ACID AND ITS DERIVATIVES FOR THE MANUFACTURE OF A MEDICAMENT FOR THE TREATMENT OF HIV INFECTIONS” (Glukor, Inc., priority 1998, dated 2000)
# Experiments:
# HIV-1ROJO = assay: Reverse transcriptase activity assay in infected PBMCs; format: cell-based; details: PBMCs
# Excerpt: PBMCs were isolated from fresh human blood obtained commercially from the American Red Cross (Baltimore, Maryland). CEM-SS cells were obtained from the NIH AIDS reagent program. The low passage, lymphotropic clinical isolate ROJO was obtained from a pediatric patient attending the AIDS Clinic at the University of Alabama at Birmingham. Phytohemagglutinin (PHA-P) was obtained from Sigma Chemical Co. (St. Louis, MO) and recombinant IL-2 was obtained from Amgen (San Francisco, CA). As a positive control for antiviral assays, AZT was obtained from the NIH AIDS Reagent Program. HIV-1RF also was obtained from the NIH AIDS reagent program. Tritiated thymidine triphosphate was obtained from New England Nuclear (Boston, MA). Each plate in each experiment contained cell control wells (cells only), virus control wells (cells plus virus), drug toxicity control wells (cells plus drug only), drug colorimetric control wells (drug only) as well as experimental wells (drug plus cells plus virus).
# Fresh human PBMCs were isolated from voluntary Red Cross donors, seronegative for HIV and HBV. Leukophoresed blood was diluted 1:1 with Dulbecco's PBS, layered over 14 mL of Ficoll-Hypaque density gradient in a 50mL centrifuge and then centrifuged for 30 minutes at 600 x g. Banded PBMCs were gently aspirated from the resulting interface and subsequently washed twice with PBS by low speed centrifugation. […] PBMCs were maintained in this medium at a concentration of 1-2 x 10^6 cells/mL with bi-weekly medium changes until used in the assay.
# (§1) For the standard PBMC assay, PHA-P stimulated cells from at least two normal donors were pooled, diluted in fresh medium to a final concentration of 1 x 10^6 cells/mL, and plated in the interior wells of a 96 well round bottom microplate at 50 µL/well (5 x 10^4 cells/well). Test drug dilutions were prepared at a 2X concentration in microfuge tubes and 100 µL of each concentration was placed in appropriate wells in a standard format. A predetermined dilution of virus stock was placed in each test well (50 µL, final MOI ≅ 0.1). Wells with cells and virus alone were used for virus control. Separate plates were prepared identically without virus for drug cytotoxicity studies using an XTT assay system. The PBMC cultures were maintained for seven days following infection, at which time cell-free supernatant samples were collected and assayed for reverse transcriptase activity as described below.
# Virus Preparation: Pre-tittered aliquots of HIV-1ROJO and HIV-1RF were removed from the freezer (-80°C) and thawed to room temperature in a biological safety cabinet. The virus was resuspended and diluted into tissue culture medium such that the amount of virus added to each well in a volume of 50 µL will be the amount determined to give complete cell killing at 6 days post-infection.
# Reverse Transcriptase Activity Assay: A microtiter based reverse transcriptase (RT) reaction was utilized as described by Buckheit et al., (1991), AIDS Research and Human Retroviruses, 7:295-302. Tritiated thymidine triphosphate (^3H-TTP) was suspended in distilled H2O at 5 Ci/mL. Poly rA and oligo dT were prepared as a stock solution which was kept at -20°C. RT reaction buffer was prepared fresh on a daily basis and contained 125 µL 1M EGTA, 125 µL dH2O, 110 µL 10% SDS, 50 µL 1M Tris (pH 7.4), 50 µL 1M DTT, and 40 µL 1M MgCl2. These three solutions were mixed together in a ratio of 2 parts ^3H-TTP, 1 part poly rA:oligo dT, and 1 part reaction buffer. Ten microliters of this reaction mixture were placed in a round bottom microtiter plate and 15 µL of virus containing supernatant were added and mixed. The plate was incubated at 37°C in a water bath with a solid support to prevent submersion of the plate and incubated for 60 minutes.
# HIV-1IIIB = assay: PBMC cell-based anti-HIV assay; details: PBMCs
# Experimental: as §1
# Reverse Transcriptase Activity Assay: A microtiter based reverse transcriptase (RT) reaction was utilized as described by Buckheit et al., (1991), AIDS Research and Human Retroviruses, 7:295-302. Tritiated thymidine triphosphate (^3H-TTP) was suspended in distilled H2O at 5 Ci/mL. […] Opti-Fluor-O (Packard) was added to each sample and incorporated radioactivity was quantified utilizing a Wallac 1450 MicroBeta Plus liquid scintillation counter. […]
structure (smiles),measurement,setting,value
"Cc1cn([C@H]2C[C@H](N=[N+]=[N-])[C@@H](CO)O2)c(=O)[nH]c1=O [AZT, reference compound]",IC50,HIV-1ROJO; 2hr pretreatment,4 nM
same,IC50,HIV-1ROJO; without pretreatment,8 nM
same,IC50,HIV-1IIIB,2 nM
